Source: patent US11827628B2, “Compositions and methods for inhibition of the JAK pathway” (Rigel Pharmaceuticals, Inc., priority 2005, dated 2023)
Counter-ions that a name gives are not always drawn. Like-named read-outs stand apart in the source and are kept apart here.

Assays:
[1] = tested on: up-regulation of ICAM-1 (CD54) by IFNγ in U937 human monocytic cells; experiment: U937 IFNγ ICAM1 FACS Assay; type: cell-based; conditions: U937 cells stimulated with IFNγ, ICAM-1 expression by FACS, read-out: IC50, Example 44
Outline: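 Readout was the geometric-mean APC anti-ICAM-1 signal by FACS on live U937 monocytic cells, with % live cells also recorded. Cells were exposed to compounds (8 points, 3-fold dilutions, duplicates) for 30 min at 37 °C before 18–24 h of IFNγ stimulation. EC50 values were computed from the dose curve.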

[2] = tested on: IL-4 stimulated expression of CD23 in human Ramos B cells (JAK-1 and JAK-3); experiment: Assay for Ramos B-Cell Line Stimulated with IL-4 (CD23 upregulation, FACS); type: cell-based; conditions: read-out: IC50, Example 41
Outline: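 Compound effect on IL-4-driven JAK1/JAK3 signalling is gauged as CD23 surface expression, measured by FACS after 20-24 h of stimulation with IL-4 at 50 units/mL final. A 1 h compound pre-treatment at 37 °C precedes stimulation, and IC50 is derived from the results.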

[3] = Ramos B-cell line stimulated with IL-4, CD23 expression by FACS
[4] = Ramos B cells stimulated with IL-4, CD23 expression by FACS

IC50 [1] [nM] | IC50 [2, 3] [nM] | IC50 [2, 4] [nM] | IC50 ([1]; hydrochloride) [nM] | IC50 ([2]; Ramos B-cell line stimulated with IL-4, CD23 expression by FACS, hydrochloride) [nM] | Compound
329 | 23.3 | – | – | – | Cc1ccc(Nc2ncc(F)c(Nc3ccc(OCC#N)c(F)c3)n2)cc1S(N)(=O)=O [Compound I-11, N2-(3-Aminosulfonyl-4-methylphenyl)-5-fluoro-N4-(4-cyanomethyleneoxy-3-fluorophenyl)-2,4-pyrimidinediamine]
1090 | – | 29.4 | – | – | N#CCN1C(=O)CSc2ccc(Nc3nc(Nc4cccc(S(N)(=O)=O)c4)ncc3F)cc21 [VII-36, N2-(3-Aminosulphonylphenyl)-5-fluoro-N4-(3-oxo-4-cyanomethyl-benzo[1,4]thiazin-6-yl)-2,4-pyrimidinediamine]
10100 | – | 153 | – | – | COc1ccc(Nc2nc(Nc3cc(C)c4c(c3)S(=O)(=O)NC=N4)ncc2F)cc1Cl [VIII-3, N4-(3-Chloro-4-methoxyphenyl)-5-fluoro-N2-(5-methyl-2H-1,1-dioxo-1,2,4-benzothiadiazin-7-yl)-2,4-pyrimidinediamine]
8550 | – | 178 | – | – | N4-(3-Chloro-4-cyanomethyleneoxyphenyl)-5-fluoro-N2-(5-methyl-2H-1,1-dioxide-1,2,4-benzothiadiazin-7-yl)-2,4-pyrimidinediamine [VIII-2]
1670 | – | 184 | – | – | N2-(3-Aminosulphonylphenyl)-5-fluoro-N4-[4-(3-pyridinylmethyl)benzo[1,4]oxazin-7-yl]-2,4-pyrimidinediamine [VII-55]
978 | 137 | – | – | – | NS(=O)(=O)c1cccc(Nc2ncc(F)c(Nc3ccc(SCc4cccnc4)cc3)n2)c1 [Compound I-192, N2-(3-Aminosulfonylphenyl)-5-fluoro-N4-[4-(3-pyridinyl)-methylenethiophenyl]-2,4-pyrimidinediamine]
5060 | – | 350 | – | – | CN1C(=O)CSc2ccc(Nc3nc(Nc4cccc(S(=O)(=O)N5CCCCC5)c4)ncc3F)cc21 [VII-50, 5-Fluoro-N4-(4-methyl-3-oxo-benz[1,4]thiazin-6-yl)-N2-(3-pipendinosulfonylphenyl)-2,4-pyrimidinediamine]
1980 | – | 108 | – | – | N2-[3-Aminosulfonyl-4-(4-methylpiperazine-1-yl)phenyl]-N4-(3-cyanomethylene-1H-indol-6-yl)-5-fluoro-2,4-pyrimidinediamine [IX-17]
2690 | 240 | – | – | – | Cc1cc(COc2ccc(Nc3nc(Nc4ccc(C)c(S(N)(=O)=O)c4)ncc3F)cc2)n(Cc2ccccc2)n1 [Compound I-199, N2-(3-Aminosulfonyl-4-methylphenyl)-N4-[4-(1-benzyl-3-methyl-(1H)-pyrazol-5-yl)methyleneoxyphenyl]-5-fluoro-2,4-pyrimidinediamine]
15700 | 292 | – | – | – | Cc1cc(Nc2nc(Nc3ccc(S(N)(=O)=O)cc3)ncc2F)cc(C)c1OC(C)C(N)=O (racemic) [Compound I-122, Racemic N4-[4-(1-Aminocarbonyl)ethoxy-3,5-dimethyl]phenyl-N2-(4-aminosulfonyl)phenyl-5-fluoro-2,4-pyrimidinediamine]
13500 | 165 | – | – | – | Cc1cc(Nc2nc(Nc3ccc(S(N)(=O)=O)cc3)ncc2F)ccc1OCC(N)=O [Compound I-113, N4-(4-Aminocarbonylmethoxy-3-methyl)phenyl-N2-(4-aminosulfonyl)phenyl-5-fluoro-2,4-pyrimidinediamine]
456 | 62.4 | – | – | – | CNS(=O)(=O)c1cc(Nc2ncc(C)c(Nc3ccc(OCc4ccccn4)cc3)n2)ccc1C [Compound I-180, 5-Methyl-N2-[3-(N-methylaminosulfony)-4-methylphenyl]-N4-[4-(2-pyridinyl)methyleneoxyphenyl]-2,4-pyrimidinediamine]
6660 | – | 168 | – | – | N2-[3-Aminosulfonyl-4-(4-methylpiperazine-1-yl)phenyl]-N4-(3-cyanomethylene-1H-indol-7-yl)-5-fluoro-2,4-pyrimidinediamine [IX-18]
43.5 | 6.27 | – | – | – | N#CCOc1ccc(Nc2nc(Nc3cccc(S(N)(=O)=O)c3)ncc2Br)cc1 [Compound I-13, N2-(3-Aminosulfonylphenyl)-5-bromo-N4-(4-cyanomethyleneoxyphenyl)-2,4-pyrimidinediamine]
2430 | 292 | – | – | – | Cc1ccc(Nc2ncc(F)c(Nc3ccc(OC(C)C(N)=O)cc3)n2)cc1S(N)(=O)=O (centres unmarked) [Compound I-118, N4-[4-(1-Aminocarbonyl)ethoxy]phenyl-N2-(3-aminosulfonyl-4-methyl)phenyl-5-fluoro-2,4-pyrimidinediamine]
849 | – | 111 | – | – | COCCCn1ncc2cc(Nc3nc(Nc4cccc(S(N)(=O)=O)c4)ncc3F)ccc21 [VII-22, N2-(3-Aminosulfonylphenyl)-5-fluoro-N4-[1-(3-methoxypropyl)indazolin-5-yl]-2,4-pyrimidinediamine]
117 | 24.3 | – | – | – | Cc1cnc(Nc2cccc(S(N)(=O)=O)c2)nc1Nc1ccc(OCc2ccccn2)cc1 [Compound I-179, N2-(3-Aminosulfonylphenyl)-5-methyl-N4-[4-(2-pyridinyl)methyleneoxyphenyl]-2,4-pyrimidinediamine]
2990 | 184 | – | – | – | Cc1cc(Nc2nc(Nc3ccc(C)c(S(N)(=O)=O)c3)ncc2F)ccc1OC(C)C(N)=O (racemic) [Compound I-121, Racemic N4-[4-(1-Aminocarbonyl)ethoxy-3-methyl]phenyl-N2-(3-aminosulfonyl-4-methyl)phenyl-5-fluoro-2,4-pyrimidinediamine]
4460 | 201 | – | – | – | Cc1cc(Nc2nc(Nc3cccc(S(N)(=O)=O)c3)ncc2F)ccc1OC(C)C(N)=O (racemic) [Compound I-120, Racemic N4-[4-(1-Aminocarbonyl)ethoxy-3-methyl]phenyl-N2-(3-aminosulfonyl)phenyl-5-fluoro-2,4-pyrimidinediamine]
3300 | 132 | – | – | – | Cc1ccc(Nc2ncc(F)c(Nc3cc(C)c(OCC(N)=O)c(C)c3)n2)cc1S(N)(=O)=O [Compound I-96, N4-(4-Aminocarbonylmethoxy-3,5-dimethyl)phenyl-N2-(3-aminosulfonyl-4-methyl)phenyl-5-fluoro-2,4-pyrimidinediamine]
1100 | 47.3 | – | – | – | N2-(3-Aminosulfonyl-4-methylphenyl)-5-fluoro-N4-[4-(2-pyridinyl)-3-fluoromethyleneoxyphenyl]-2,4-pyrimidinediamine [Compound I-172]
596 | – | 82.8 | – | – | NS(=O)(=O)c1cccc(Nc2ncc(F)c(Nc3ccc(OCC(F)(F)F)cc3)n2)c1 [VI-47, N2-(3-Aminosulfonylphenyl)-5-fluoro-N4-(4-trifluoromethylmethyleneoxyphenyl)-2,4-pyrimidinediamine]
477 | – | 43.9 | – | – | Cc1ccc(Nc2ncc(F)c(Nc3ccc4c(c3)NC(=O)CS4)n2)cc1S(N)(=O)=O [VII-45, N2-(3-Aminosulphonyl-4-methyl-phenyl)-5-fluoro-N4-(3-oxo-4H-benzo[1,4]thiazin-6-yl)-2,4-pyrimidinediamine]
1300 | 144 | – | – | – | Cc1cc(COc2cccc(Nc3nc(Nc4ccc(C)c(S(N)(=O)=O)c4)ncc3F)c2)no1 [Compound I-214]
1290 | – | 227 | – | – | Cc1ccc(Nc2ncc(F)c(Nc3ccc4c(c3)CN(C(=O)N(C)C)CC4)n2)cc1S(N)(=O)=O [VII-18, N2-(3-Aminosulfonyl-4-methylphenyl)-5-fluoro-N4-[2-(dimethylaminocarbonyl)-1,2,3,4-tetrahydroisoquin-7-yl]-2,4-pyrimidinediamine]
– | – | – | 3620 | 72.7 | CNS(=O)(=O)c1cc(Nc2ncc(F)c(Nc3ccc(Cn4ccnc4)cc3)n2)ccc1C [III-85, 5-Fluoro-N2-[3-(N-methylaminosulfony)-4-methylphenyl]-N4-[4-(1-imidazolylmethyl)phenyl]-2,4-pyrimidinediamine hydrochloride]
4970 | 309 | – | – | – | C[Si](C)(C)C#Cc1cnc(Nc2cccc(S(N)(=O)=O)c2)nc1Nc1ccc(OCC#N)cc1 [Compound I-15, N2-(3-Aminosulfonylphenyl)-N4-(4-cyanomethyleneoxyphenyl)-5-trimethylsilylacetylene-2,4-pyrimidinediamine]
45500 | – | 669 | – | – | CN1C(=O)C(C)(C)Oc2cc(Nc3nc(Nc4cccc(S(N)(=O)=O)c4)ncc3F)cnc21 [VII-42, N2-(3-Aminosulfonylphenyl)-N4-[2,2,4-trimethyl-3-oxo-5-pyrid[1,4]oxazin-7-yl]-5-fluoro-2,4-pyrimidinediamine]
4730 | – | 109 | – | – | N#CCn1ccc2cc(Nc3nc(Nc4ccc(Cl)c(S(N)(=O)=O)c4)ncc3F)ccc21 [IX-7, N2-(3-Aminosulfonyl-4-chlorophenyl)-N4-(1-cyanomethyleneindol-5-yl)-5-fluoro-2,4-pyrimidinediamine]
6250 | – | 413 | – | – | CN(C)C(=O)C1Cc2cc(Nc3nc(Nc4ccc(Cl)c(S(N)(=O)=O)c4)ncc3F)ccc2O1 (racemic) [VII-27, Racemic N2-(3-Aminosulfonyl-4-chlorophenyl)-N4-[2-(N,N-dimethylaminocarbonyl)-2,3-dihydrobenzofuran-5-yl]-5-fluoro-2,4-pyrimidinediamine]

Compound | IC50 [1] [nM] | IC50 [2, 3] [nM] | IC50 [2, 4] [nM] | IC50 ([1]; hydrochloride) [nM] | IC50 ([2]; Ramos B-cell line stimulated with IL-4, CD23 expression by FACS, hydrochloride) [nM]
Cc1ccc(Nc2ncc(F)c(Nc3ccc4c(c3)c(CC#N)cn4C)n2)cc1S(N)(=O)=O [IX-20] | 2900 | – | 122 | – | –
